The NIST ThermoML archive (doi:10.1016/j.jct.2004.12.014)

How the values were obtained:
[1] = xn = mol fraction of the nth substance listed; conditions: 318.15 K, 101 kPa, Liquid
[2] = excess molar enthalpy (molar enthalpy of mixing); xn = mol fraction of the nth substance listed; conditions: 318.15 K, 101 kPa, Liquid

CCCCCCCCCCCCCCC [pentadecane] + CCCCOC(=O)CC
Conditions	excess molar enthalpy [kJ/mol]	excess molar volume [m3/mol]
[1], x2 = 0.0505	–	1.65e-07
[1], x2 = 0.0965	–	3.01e-07
[1], x2 = 0.197	–	5.5e-07
[1], x2 = 0.2885	–	7.14e-07
[1], x2 = 0.372	–	8.22e-07
[1], x2 = 0.4383	–	8.58e-07
[1], x2 = 0.5036	–	8.89e-07
[1], x2 = 0.5649	–	8.8e-07
[1], x2 = 0.6245	–	8.56e-07
[1], x2 = 0.6765	–	8.1e-07
[1], x2 = 0.7278	–	7.63e-07
[1], x2 = 0.7734	–	6.88e-07
[1], x2 = 0.817	–	5.89e-07
[1], x2 = 0.8567	–	4.91e-07
[1], x2 = 0.897	–	3.82e-07
[1], x2 = 0.9328	–	2.79e-07
[1], x2 = 0.9665	–	1.56e-07
[2], x2 = 0.0761	0.33	–
[2], x2 = 0.1691	0.632	–
[2], x2 = 0.2538	0.883	–
[2], x2 = 0.3371	1.06	–
[2], x2 = 0.4082	1.17	–
[2], x2 = 0.4663	1.22	–
[2], x2 = 0.5154	1.23	–
[2], x2 = 0.5563	1.22	–
[2], x2 = 0.5938	1.21	–
[2], x2 = 0.6011	1.2	–
[2], x2 = 0.6427	1.16	–
[2], x2 = 0.6861	1.09	–
[2], x2 = 0.7321	1.01	–
[2], x2 = 0.7784	0.9	–
[2], x2 = 0.8262	0.752	–
[2], x2 = 0.8732	0.594	–
[2], x2 = 0.9184	0.409	–
[2], x2 = 0.9612	0.212	–

CCCCCCCCCCCCCCCCC [heptadecane] + CCC(=O)OC
Conditions	excess molar enthalpy [kJ/mol]	excess molar volume [m3/mol]
[1], x2 = 0.0755	–	3.32e-07
[1], x2 = 0.1644	–	6.94e-07
[1], x2 = 0.3049	–	1.182e-06
[1], x2 = 0.409	–	1.452e-06
[1], x2 = 0.5004	–	1.581e-06
[1], x2 = 0.5739	–	1.623e-06
[1], x2 = 0.6379	–	1.592e-06
[1], x2 = 0.6942	–	1.504e-06
[1], x2 = 0.7425	–	1.39e-06
[1], x2 = 0.7831	–	1.271e-06
[1], x2 = 0.8219	–	1.128e-06
[1], x2 = 0.8553	–	9.81e-07
[1], x2 = 0.8846	–	8.56e-07
[1], x2 = 0.9369	–	5.66e-07
[1], x2 = 0.9596	–	4.18e-07
[1], x2 = 0.9803	–	2.34e-07
[2], x2 = 0.0946	0.552	–
[2], x2 = 0.2186	1.16	–
[2], x2 = 0.3238	1.62	–
[2], x2 = 0.4115	1.91	–
[2], x2 = 0.4797	2.06	–
[2], x2 = 0.5289	2.12	–
[2], x2 = 0.5687	2.15	–
[2], x2 = 0.5996	2.15	–
[2], x2 = 0.6291	2.13	–
[2], x2 = 0.6637	2.09	–
[2], x2 = 0.6974	2.01	–
[2], x2 = 0.7327	1.89	–
[2], x2 = 0.7677	1.74	–
[2], x2 = 0.8042	1.55	–
[2], x2 = 0.8381	1.37	–
[2], x2 = 0.8741	1.13	–
[2], x2 = 0.909	0.896	–
[2], x2 = 0.9409	0.619	–
[2], x2 = 0.9721	0.315	–

CCC(=O)OC [methyl propanoate] + CCCCCCCCC
Conditions	excess molar enthalpy [kJ/mol]	excess molar volume [m3/mol]
[1], x1 = 0.047	–	2.8e-07
[1], x1 = 0.111	–	5.7e-07
[1], x1 = 0.2022	–	9.27e-07
[1], x1 = 0.2873	–	1.164e-06
[1], x1 = 0.3671	–	1.333e-06
[1], x1 = 0.4381	–	1.406e-06
[1], x1 = 0.5037	–	1.425e-06
[1], x1 = 0.5664	–	1.423e-06
[1], x1 = 0.6242	–	1.359e-06
[1], x1 = 0.6768	–	1.278e-06
[1], x1 = 0.7271	–	1.166e-06
[1], x1 = 0.7724	–	1.037e-06
[1], x1 = 0.817	–	8.78e-07
[1], x1 = 0.856	–	7.5e-07
[1], x1 = 0.896	–	5.89e-07
[1], x1 = 0.9315	–	3.93e-07
[1], x1 = 0.9661	–	1.98e-07
[2], x1 = 0.084	0.463	–
[2], x1 = 0.1528	0.794	–
[2], x1 = 0.2279	1.09	–
[2], x1 = 0.2957	1.31	–
[2], x1 = 0.3549	1.46	–
[2], x1 = 0.4111	1.57	–
[2], x1 = 0.4611	1.64	–
[2], x1 = 0.5059	1.67	–
[2], x1 = 0.546	1.68	–
[2], x1 = 0.5832	1.67	–
[2], x1 = 0.6314	1.62	–
[2], x1 = 0.6645	1.55	–
[2], x1 = 0.7099	1.45	–
[2], x1 = 0.7579	1.3	–
[2], x1 = 0.808	1.12	–
[2], x1 = 0.8604	0.889	–
[2], x1 = 0.9122	0.621	–
[2], x1 = 0.9599	0.322	–

CCCCCOC(=O)CC [pentyl propanoate] + CCCCCCC
Conditions	excess molar enthalpy [kJ/mol]	excess molar volume [m3/mol]
[1], x1 = 0.0556	–	6.6e-08
[1], x1 = 0.1092	–	1.1e-07
[1], x1 = 0.182	–	1.41e-07
[1], x1 = 0.217	–	1.68e-07
[1], x1 = 0.2721	–	1.85e-07
[1], x1 = 0.3275	–	1.96e-07
[1], x1 = 0.3857	–	1.98e-07
[1], x1 = 0.4428	–	1.92e-07
[1], x1 = 0.5013	–	1.78e-07
[1], x1 = 0.5611	–	1.59e-07
[1], x1 = 0.6204	–	1.37e-07
[1], x1 = 0.6824	–	1.03e-07
[1], x1 = 0.742	–	7.7e-08
[1], x1 = 0.8047	–	4.9e-08
[1], x1 = 0.8674	–	2.9e-08
[1], x1 = 0.9323	–	9e-09
[2], x1 = 0.0541	0.161	–
[2], x1 = 0.1161	0.304	–
[2], x1 = 0.1808	0.422	–
[2], x1 = 0.2438	0.515	–
[2], x1 = 0.3073	0.59	–
[2], x1 = 0.3672	0.635	–
[2], x1 = 0.4224	0.657	–
[2], x1 = 0.445	0.661	–
[2], x1 = 0.4906	0.666	–
[2], x1 = 0.5414	0.656	–
[2], x1 = 0.5976	0.625	–
[2], x1 = 0.6595	0.573	–
[2], x1 = 0.725	0.496	–
[2], x1 = 0.7935	0.396	–
[2], x1 = 0.8667	0.27	–
[2], x1 = 0.9349	0.141	–

CCCCCOC(=O)CC [pentyl propanoate] + CCCCCCCCCCCCCCC
Conditions	excess molar enthalpy [kJ/mol]	excess molar volume [m3/mol]
[1], x1 = 0.0451	–	1.37e-07
[1], x1 = 0.1011	–	2.83e-07
[1], x1 = 0.1866	–	4.41e-07
[1], x1 = 0.2665	–	5.63e-07
[1], x1 = 0.341	–	6.68e-07
[1], x1 = 0.4128	–	7.28e-07
[1], x1 = 0.478	–	7.64e-07
[1], x1 = 0.5422	–	7.75e-07
[1], x1 = 0.5989	–	7.59e-07
[1], x1 = 0.6522	–	7.35e-07
[1], x1 = 0.7029	–	6.74e-07
[1], x1 = 0.7542	–	6.2e-07
[1], x1 = 0.7997	–	5.33e-07
[1], x1 = 0.8438	–	4.51e-07
[1], x1 = 0.8845	–	3.62e-07
[1], x1 = 0.924	–	2.42e-07
[1], x1 = 0.9627	–	1.57e-07
[2], x1 = 0.0757	0.277	–
[2], x1 = 0.1563	0.519	–
[2], x1 = 0.2383	0.728	–
[2], x1 = 0.3152	0.888	–
[2], x1 = 0.3915	0.995	–
[2], x1 = 0.4596	1.05	–
[2], x1 = 0.52	1.06	–
[2], x1 = 0.5607	1.05	–
[2], x1 = 0.5843	1.03	–
[2], x1 = 0.6262	0.988	–
[2], x1 = 0.6747	0.921	–
[2], x1 = 0.7264	0.836	–
[2], x1 = 0.7806	0.727	–
[2], x1 = 0.8352	0.59	–
[2], x1 = 0.892	0.417	–
[2], x1 = 0.9477	0.224	–
